# Results from article PMC9820345, “Metal Complexes of a 5-Nitro-8-Hydroxyquinoline-Proline Hybrid with Enhanced Water Solubility Targeting Multidrug Resistant Cancer Cells” (International Journal of Molecular Sciences, 2022).
# Where two headings read alike, the source gives them in different places.
# Columns and labels:
# [1] = Cyclic voltammetry of the iron complexes; type: physicochemical; conditions: for E1/2 vs. NHE: iron(III/II)-ligand (1:3), pH 7.40
# [2] = Complex formation kinetics (UV-vis, tandem cuvette); type: physicochemical; conditions: 50 μM triaqua complex + 50 μM ligand
# Protocol: The complex formation kinetics for the RhCp* and RuCym complexes was also assayed and compared at pH 1 and 4 (Figure S20). UV-vis spectral changes were followed in time after the triaqua complex [M(arene)(H2O)3]^2+ (50 μM) and the ligand (50 μM) were mixed in a tandem cuvette. The equilibrium was reached much faster in the case of the RhCp* complex (~5 min at pH 1, ~1 min at pH 4), as compared to the RuCym complex (~7 h at pH 1, ~45 min at pH 4).
# [3] = type: physicochemical; conditions: for logK' (H2O/Cl−): I = 0.2 M KNO3, 25.0 °C
# Protocol: Spectral changes in the UV-vis spectra (Figure 8c) reveal two transformation processes. […] As chloride ions can efficiently coordinate to these types of half-sandwich organometallic complexes, the water/chloride co-ligand exchange process was also studied by UV-vis spectrophotometry (at pH 7.4 or 6.0), and logK' (H2O/Cl^-) exchange constants were determined (Table 3) based on the spectral changes upon increasing the chloride concentration in the solution. For the RhCp* complex, a higher constant, namely stronger chloride ion affinity, was obtained. […] An Agilent Cary 8454 diode array spectrophotometer (Santa Clara, CA, USA) was used to obtain UV-vis spectra in the wavelength range 200-1000 nm, while spectra were recorded for the Fe(II)-containing samples using an Avantes (Avantes B.V., Apeldoorn, The Nederlands) AvaSpec-ULS2048CL-EVO spectrometer with an AvaLight-DHc light source and […] transmission dip probe. The titrations for the Fe(II)-containing samples were performed in a laboratory glove box (GP(Campus), Jacomex) (O2 content ≤ 1 ppm). The path length (l) was 1 cm in most cases (the actual l is always indicated in the legends of the figures). […] Spectra were always background and baseline corrected. The computer program HypSpec was used to obtain stability constants. Hydrolysis constants of the Fe(III), Fe(II), RuCym, and RhCp* species were included in the speciation models (see Table S4 with the data taken from References).
# Ac-Phe-His-Ala-NH2 (FHA) = assay: Mixed-ligand adduct formation with His-containing oligopeptide FHA; type: binding
# Protocol: (§1) According to numerous papers on the binding of half-sandwich organometallic complexes to HSA [35, 36], surface exposed histidine (His) side chains are the most feasible coordinating moieties. […] The equilibrium could be reached within 3–10 min in the case of the RhCp* complex on the basis of the UV-vis spectral changes (Figure S28), and similar conditional constants (logK’) were computed with these model compounds for the formation of mixed-ligand RhCp* complexes; namely logK’ 5.00 ± 0.1, 4.4 ± 0.1, 5.1 ± 0.1 were obtained in the case of FHA, AHA, and mim, respectively. […] In the case of the oligopeptides, formation of isomers was detected which might be explained by the existence of two chiral centers, namely the metal ion and His-CHα. The adduct formation of the RuCym complex with mim was quantitative, hindering the determination of the logK’ value (meaning logK’ > 5.5). […]
# (§2) An Agilent Cary 8454 diode array spectrophotometer (Santa Clara, CA, USA) was used to obtain UV-vis spectra in the wavelength range 200–1000 nm, while spectra were recorded for the Fe(II)-containing samples using an Avantes (Avantes B.V., Apeldoorn, The Nederlands) AvaSpec-ULS2048CL-EVO spectrometer with an AvaLight-DHc light source and FDP-7UVIR200-2-VAR transmission dip probe. […]
# Ac-Ala-His-Ala-NH2 (AHA) = assay: Mixed-ligand adduct formation with His-containing oligopeptide AHA; type: binding
# Protocol: as §1, §2
# [4] = pH 7.4, 1H NMR peak integrals, 24 h incubation
E1/2 vs. NHE ([1]; scan rate 0.005 V/s),E1/2 vs. NHE ([1]; scan rate 0.010 V/s),E1/2 vs. NHE ([1]; scan rate 0.015 V/s),E1/2 vs. NHE ([1]; scan rate 0.020 V/s),E1/2 vs. NHE ([1]; scan rate 0.025 V/s),"formal potential E'1/2 of the Fe(III)/Fe(II) redox pair of the iron complexes ([1]; pH 7.4, 1:3 metal-to-ligand ratio, ciron = 0.5 mM)",logK' (H2O/Cl−) ([3]; pH 7.4),SMILES,time to reach equilibrium of complex formation ([2]; pH 1),time to reach equilibrium of complex formation ([2]; pH 4),pKa (1) [3],pKa (2) [3],"conditional constant logK' of mixed-ligand complex (Ac-Phe-His-Ala-NH2 (FHA); pH 7.4, UV-vis)","conditional constant logK' of mixed-ligand complex (Ac-Ala-His-Ala-NH2 (AHA); pH 7.4, UV-vis)",logK' (H2O/Cl−) ([3]; pH 6.0),conditional constant logK' of adduct (Ac-Phe-His-Ala-NH2 (FHA); [4]),conditional constant logK' of adduct (Ac-Ala-His-Ala-NH2 (AHA); [4])
+0.207 V,+0.216 V,+0.218 V,+0.217 V,+0.214 V,+215 ± 5 mV vs. NHE,–,"O=C(O)[C@@H]1CCCN1Cc1cc([N+](=O)[O-])c2cccnc2c1O [HQNO2-L-Pro, (2S)-1-((8-hydroxy-5-nitroquinolin-7-yl)methyl)pyrrolidin-1-ium-2-carboxylate]",–,–,–,–,–,–,–,–,–
–,–,–,–,–,–,2.07 ± 0.03,"CC1=C(C)[C](C)([Rh]([Cl])[O]c2c(C[NH+]3CCC[C@H]3C(=O)O)cc([N+](=O)[O-])c3cccnc23)C(C)=C1C.[Cl-] [RhCp*-HQNO2-L-Pro, [RhCp*(HQNO2-L-Pro)Cl]Cl]",~ 5 min,~ 1 min,9.33 ± 0.03,10.34 ± 0.03,5.00 ± 0.1,4.4 ± 0.1,–,–,–
–,–,–,–,–,–,–,"Cc1ccc(C(C)C)cc1.O=C(O)[C@@H]1CCC[NH+]1Cc1cc([N+](=O)[O-])c2ccc[n+]3c2c1[O][Ru-]3[Cl].[Cl-] [RuCym-HQNO2-L-Pro, [RuCym(HQNO2-L-Pro)Cl]Cl]",~ 7 h,~ 45 min,8.55 ± 0.03,10.21 ± 0.03,–,–,1.47 ± 0.01,3.9 ± 0.2,5.1 ± 0.2
